pIC50: −log10 of the molar value.
Key:
human (His)6DGAT1 = target: T1, human (His)6DGAT1 (Homo sapiens, UniProt O75907); test: DGAT1 Inhibition Assay; assay type: biochemical; conditions: membrane preparation from Sf9 cells overexpressing human (His)6DGAT1; LC/MS/MS readout
T1 construct: made in house; host or cells: Sf9 insect cells (membrane preparation)
T1 sequence (O75907 1-488): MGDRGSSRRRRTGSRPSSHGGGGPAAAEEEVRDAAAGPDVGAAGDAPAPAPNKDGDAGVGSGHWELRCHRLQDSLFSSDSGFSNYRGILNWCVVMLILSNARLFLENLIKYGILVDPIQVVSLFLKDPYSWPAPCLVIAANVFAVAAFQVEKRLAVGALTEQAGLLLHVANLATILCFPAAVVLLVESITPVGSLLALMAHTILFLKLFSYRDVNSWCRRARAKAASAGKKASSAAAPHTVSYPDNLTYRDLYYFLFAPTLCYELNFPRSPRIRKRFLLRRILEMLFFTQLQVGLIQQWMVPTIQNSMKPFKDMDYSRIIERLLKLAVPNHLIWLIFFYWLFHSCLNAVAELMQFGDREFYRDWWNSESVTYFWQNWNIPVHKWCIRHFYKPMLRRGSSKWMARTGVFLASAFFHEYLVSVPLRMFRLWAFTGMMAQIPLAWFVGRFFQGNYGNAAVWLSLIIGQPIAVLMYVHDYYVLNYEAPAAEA
Experimental: The enzyme preparation used in this assay is a membrane preparation from Sf9 cells overexpressing human (His)6DGAT1. During all steps samples were chilled to 4° C. Sf9 cells expressing human (His)6DGAT1 were thawed at room temperature and re-suspended at a 10:1 ratio (mL buffer/g of cells) in 50 mM HEPES, 1× Complete Protease Inhibitor, pH 7.5. The re-suspended pellet was homogenized for 1 min using a Brinkman PT 10/35 homogenizer with a 20 mm generator. Cells were lysed using Avestin Emulsiflex (chilled to 4° C.) at 10000-15000 psi. Lysate was centrifuged at 100,000×g for 1 h at 4° C. Supernatant was removed and pellets were re-suspended in 50 mM HEPES, 1× Complete Protease Inhibitor, pH 7.5 at ⅙ the volume of supernatant. Re-suspended pellets were pooled and homogenized with 10 strokes of a Glas-Col motor driven teflon pestle on setting 70. The protein concentration of the membrane preparation was quantified using BCA protein assay with 1% SDS. The membrane preparation was aliquoted, frozen on dry ice, and stored at −80° C.
For 50 mL, 25 mL of 0.2 M HEPES stock buffer, 0.5 mL of 1 M MgCl2 ([…]), and 24.5 mL of milli-Q H2O are added to the 55 mL Wheaton Potter-Elvehjem homogenizer. Enzyme preparation (0.1 mL) is added to buffer and the mixture is homogenized with 5 strokes on ice using the Glas-Col variable speed homogenizer system on setting 70.
For 50 mL, 0.5 mL 10 mM diolein is added to 9.5 mL of EtOH in a 50 mL Falcon screw cap conical centrifuge tube. Five mL of 10 mM sodium acetate pH 4.5 is added followed by 0.5 mL of 10 mM oleoyl-CoA. Finally, the remaining 4.5 mL of 10 mM sodium acetate pH 4.5 is added followed by 30 mL of milli-Q H20. The solution should be gently agitated by hand to induce mixing. The final concentrations of EtOH and sodium acetate are 20% and 2 mM, respectively.
Dry compounds are dissolved in the appropriate volume of DMSO to a final concentration of 10 mM. […] All dilutions are performed in DMSO in a Greiner 384-well microplate. • 1. 2 μL of compound in DMSO is added to the appropriate wells. […] 25 μL of enzyme mix is added to all wells and plate(s) are incubated for 10 min at RT. • 3. […] Plate(s) are vortexed using Troemner multi-tube vortexer (setting 7 for 10 sec). • 4. 25 μL of substrate mix is added to all wells. Plate(s) are vortexed using Troemner multi-tube vortexer (setting 7 for 10 sec). Plate(s) are incubated for 30 min at RT. • 5. 10 μL of 20% acetic acid quench is added to all wells. Plate(s) are vortexed using Troemner multi-tube vortexer (setting 7 for 10 sec). • 6. 50 μL of 1-butanol w/ glyceryl tripalmitoleate internal standard is added to all wells. • 7. Plate(s) are sealed with super pierce strong plate sealer using the thermo-sealer. • 8. Plate(s) are vortexed using Troemner multi-tube vortexer (setting 10 for 5 min). • 9. Plate(s) are centrifuged at 162×g (1000 rpm for GH-3.8 rotor) for 5 min using Beckman GS-6R tabletop centrifuge.
Where indicated, tripalmitolein was used as an internal standard to control for instrument variation.
Column: Thermo Betabasic 4, 2.1×20 mm
Solvent: 10 mM Ammonium Formate, 0.1% Formic Acid, 2% water, 98% Methanol
Isocratic run 0.5 ml per minute
Data is converted to % inhibition prior to curve fitting using the following equation: […]

DGAT1 in C2C12 cells = target: T2, DGAT1 in C2C12 cells (Mus musculus, UniProt Q9Z2A7); test: Cellular assay to measure activity of DGAT1 inhibitors in mammalian cells (C2C12); assay type: cell-based; conditions: C2C12 mouse skeletal muscle cells, 250 μM oleate, 2 h, LC/MS readout
T2 construct: endogenous in cells; host or cells: C2C12 mouse skeletal muscle cells
T2 sequence (Q9Z2A7 1-498): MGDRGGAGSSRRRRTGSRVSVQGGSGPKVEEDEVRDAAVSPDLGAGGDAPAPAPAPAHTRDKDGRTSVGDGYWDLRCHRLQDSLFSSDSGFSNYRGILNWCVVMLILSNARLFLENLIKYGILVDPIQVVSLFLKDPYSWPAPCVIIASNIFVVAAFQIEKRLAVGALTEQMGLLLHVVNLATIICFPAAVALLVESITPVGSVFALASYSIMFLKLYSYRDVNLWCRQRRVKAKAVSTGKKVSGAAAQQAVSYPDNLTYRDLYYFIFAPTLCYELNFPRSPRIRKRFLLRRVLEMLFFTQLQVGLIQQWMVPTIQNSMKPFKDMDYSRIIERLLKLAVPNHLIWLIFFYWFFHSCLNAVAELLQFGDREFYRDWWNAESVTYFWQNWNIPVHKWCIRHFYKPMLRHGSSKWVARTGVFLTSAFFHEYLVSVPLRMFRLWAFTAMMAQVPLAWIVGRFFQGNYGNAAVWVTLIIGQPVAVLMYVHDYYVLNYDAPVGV
Experimental: C2C12 cells are an immortal mouse skeletal muscle cell line showing an 8-fold enrichment form DGAT1 versus DGAT2. C2C12 cells were routinely cultured in 150 cm2 flasks with DMEM (25 mM glucose) containing 10% FBS, 4 m M L-glutamine, 100 U/ml penicillin and 100 μg/ml streptomycin (30 ml per flask), at 37° C., 5% CO2 and 95% humidity. All studies were performed on cells at passage 10 or less.
C2C12 cells were seeded in 96-well plates in DMEM containing […] glucose and 10% FBS, 18 h (at 37° C.) prior to assay (all wells of the plate are used). […] Compounds were added at 1:3 dilution, 11 points and DMSO control, the starting concentration was usually 40 μM. Each point was dosed in quadruplicate allowing 2 compounds to be dosed per plate. The medium was removed at the end of the incubation and 200 μl/well of 1-butanol added. The 1-butanol contained an internal standard, tripalmitolein (2 μM). The plates were sealed with an adhesive plate sealer and left at room temperature for at least 30 min, then spun down at 209×g for 5 min.
Butanolic extracts were transferred to 384-well LC-MS plates (80 μl/well) and the plate heatsealed with a foil plate sealer. The 384-well plates containing sample were spun down at 209×g for 5 min prior to loading on the LC-MS.
Where indicated, tripalmitolein was used as an internal standard to control for instrument variation. HPLC conditions as above.

Row | SMILES | pIC50 (human (His)6DGAT1) | pIC50 (DGAT1 in C2C12 cells)
1 | CC(C)(C)c1nnc(Nc2ccc(-c3ccc(C45CCC(CC(=O)O)(CC4)CO5)cc3)cc2)o1 [Example 20, 2-(1-(4′-((5-(tert-butyl)-1,3,4-oxadiazol-2-yl)amino)-[1,1′-biphenyl]-4-yl)-2-oxabicyclo[2.2.2]octan-4-yl)acetic acid] | 6.92 | 7.80
2 | O=C(O)CC12CCC(c3ccc(-c4ccc(Nc5nnc(C6CCC6)o5)cn4)cc3)(CC1)OC2 [Example 21, (1-{4-[5-(5-cyclobutyl-[1,3,4]oxadiazol-2-ylamino)-pyridin-2-yl]-phenyl}-2-oxa-bicyclo[2.2.2]oct-4-yl)-acetic acid] | 6.44 | 6.03
3 | CC(C)(C)c1nnc(Nc2ccc(-c3ccc(C45CCC(CC(=O)O)(CC4)O5)cc3)cc2)o1 [Example 22, 2-(4-(4′-((5-(tert-butyl)-1,3,4-oxadiazol-2-yl)amino)-[1,1′-biphenyl]-4-yl)-7-oxabicyclo[2.2.1]heptan-1-yl)acetic acid] | 5.77 | 6.53
4 | CC(C)(C)c1nnc(Nc2ccc(-c3ccc(C45CCC(CCC(=O)O)(CC4)O5)cc3)cc2)o1 [Example 23, 3-(4-(4′-((5-(tert-butyl)-1,3,4-oxadiazol-2-yl)amino)-[1,1′-biphenyl]-4-yl)-7-oxabicyclo[2.2.1]heptan-1-yl)propanoic acid] | 7.08 | 6.57

From patent US8993619B2, “Cyclic bridgehead ether DGAT1 inhibitors” (Novartis AG, priority 2012, dated 2015)
